Assay results reported in patent US5994361A, “Substituted purinyl derivatives with immunomodulating activity” (priority 1995, dated 1999).
“Also recorded” adds a separate entry of the source.

Assays:
blood cells [1] = assay: Immunophenotyping on blood cells of compound #1 treated mice; type: in vivo, C57/BLJ6 mice; set-up: unit not given here; settings: N = 10; for CD8+ CD45+ (mean): daily 4 days
Method: (§1) After in vivo drugs analysis, the drugs were evaluated on whole blood for drug stability and toxicity. Furthermore, in vivo/ex vivo analysis was performed on normal and cyclophosphamide immunosuppressed animals plus 5Fu-treated animals. Cell immunophenotyping was performed on mouse-treatedblood and spleen. The following cell surface antigens were analyzed:
(§2) CD3 (all T cells), CD4 (T helper/inducer, binds class II-restricted T cells), CD8a (cytotoxic T cells, CTL adhesion), CD11a (T, B, NK, some stem cells, CTL adhesion anti LFA-1α), MAC-1 (monocyte/macrophage), NK (natural killer cells), Ly5 (B cells), CD45 (all leukocytes, protein tyrosine phosphates), and TCR (T cell receptor).
(§3) C57/BLJ6 mice (6-8 weeks old) were injected daily for 4 consecutive days, sacrificed at day 5 and immunophenotyping was performed on blood and spleen cells.
(§4) The cells were washed twice in PBS, resuspended in 1 ml of RPMI 2% FBS, and incubated for 45 min. on ice with monoclonal antibody. The cells were washed once, fixed with 1% paraformaldehyde, then analyzed using XL Coulter® counter.

DA-3 mammary carcinoma [2] = assay: Compound #1 with Cytoxan 20 mg/kg against established DA-3 mammary carcinoma (Example 93); type: in vivo; settings: compound #1 25 mg/kg i.p. daily + CTX 20 mg/kg i.v.
Method: Combination of compound #1 (25 and 50 mg/kg i.p. daily) plus CTX (20 mg/kg i.v. single bolus) was evaluated against day 4 established DA-3 tumors.

DA-3 mammary carcinoma [3] = assay: Compound #1 with Cytoxan 28 mg/kg against DA-3 mammary carcinoma, tumor sizes (Example 94); type: in vivo, Balb/c mice; set-up: key: tumor volume = length × width²/2
Method: Parameters of effect were measured by inhibition of tumor outgrowth and growth rate [tumors measured along the longest axis (length) and the perpendicular shortest axis (width) and the tumor volumes (T.V.±S.E.) was calculated by the formula T.V.=length (cm)×(width cm)^2 /2.] assessment of body weight loss.
(§5) In another experiment, the CTX treatment was prolonged. Balb/c mice were injected s.c. with 5×10^5 DA-3 tumor cells at day 0. At day 4 when established tumors appeared, tumor-bearing animals were randomized (n=11/gr.) and injected with CTX (at 28 mg/kg) i.v. bolus injections at days 4, 11, and 18. […]

blood cells [4] = assay: Immunophenotyping on blood cells, combination with 5 Fluorouracil; type: in vivo, C57/BLJ6 mice; settings: N = 4
Method: as §1, §2, §3, §4

[5] = Body weight, compound #1 with Cytoxan 28 mg/kg (Example 94); type: in vivo, Balb/c mice; set-up: body weight: unit not given here
Method: as §5

[6] = system: Fisher male and female rats; assay: In vivo toxicity, repeated intravenous injections (Example 96)
Method: The objective of this study was to find the toxic dose of compound #1 after repeated intravenous injections in Fisher male and female rats.
Groups of 3 male rats, and 3 female rats were injected daily i.v. for 5 consecutive days. A first group received 500 mg/kg, a second group 250 mg/kg, and a third group 125 mg/kg. In addition, one male and one female were injected with 1000 mg/kg. An untreated group (male and female) was included in the experiment. For all doses a constant volume of […] was used. Injections were started on day 0 and continued until day 4 (5 days). […] On day 8, the rats were euthanatized and a macroscopic examination of the internal organs was performed.

[7] = BCH-1393 50 mg/kg + CTX 28 mg/kg, day 7
[8] = BCH-1393 50 mg/kg + CTX 28 mg/kg, day 9
[9] = BCH-1393 50 mg/kg + CTX 28 mg/kg, day 11
[10] = BCH-1393 50 mg/kg + CTX 28 mg/kg, day 14
[11] = BCH-1393 50 mg/kg + CTX 28 mg/kg, day 16
[12] = BCH-1393 50 mg/kg + CTX 28 mg/kg, day 18
[13] = BCH-1393 50 mg/kg + CTX 28 mg/kg, day 21
[14] = BCH-1393 50 mg/kg + CTX 28 mg/kg, day 23
[15] = BCH-1393 50 mg/kg + CTX 28 mg/kg, day 25
[16] = BCH-1393 50 mg/kg + CTX 28 mg/kg, day 28
[17] = BCH-1393 50 mg/kg + CTX 28 mg/kg, day 30
[18] = BCH-1393 50 mg/kg Ip (Days 3-28) + CTX 28 mg/kg Iv (days 4, 11, 18), day 4
[19] = single agent (CTX 28 mg/kg days 4, 11, 18, or BCH-1393 50 mg/kg days 3-28), day 4
[20] = single agent (CTX 28 mg/kg or BCH-1393 50 mg/kg), day 7
[21] = single agent (CTX 28 mg/kg or BCH-1393 50 mg/kg), day 9
[22] = single agent (CTX 28 mg/kg or BCH-1393 50 mg/kg), day 11
[23] = single agent (CTX 28 mg/kg or BCH-1393 50 mg/kg), day 14
[24] = single agent (CTX 28 mg/kg or BCH-1393 50 mg/kg), day 16
[25] = single agent (CTX 28 mg/kg or BCH-1393 50 mg/kg), day 18
[26] = single agent (CTX 28 mg/kg or BCH-1393 50 mg/kg), day 21
[27] = single agent (CTX 28 mg/kg or BCH-1393 50 mg/kg), day 23
[28] = single agent (CTX 28 mg/kg or BCH-1393 50 mg/kg), day 25
[29] = single agent (CTX 28 mg/kg or BCH-1393 50 mg/kg), day 28
[30] = single agent (CTX 28 mg/kg or BCH-1393 50 mg/kg), day 30
[31] = 250 mg/kg and 125 mg/kg i.v., 5 days

## CN(C)c1ncnc2c1ncn2CCCCCOC(=O)N[C@H](CCCNC(=N)N)C(=O)O [Compound #1, N,N-Dimethylaminopurinyl Pentoxycarbonyl D-Arginine]
Blood cells [1]; 25 mg/kg
  CD11b+ (mean): 13.71
  NK+ CD3+ (mean): 5.84
  NK+ CD3- (mean): 5.90
  CD8+ CD45+ (mean): 10.11
Blood cells [1]; 50 mg/kg
  CD11b+ (mean): 9.68
  NK+ CD3+ (mean): 3.25
  NK+ CD3- (mean): 8.14
  CD8+ CD45+ (mean): 8.65
DA-3 mammary carcinoma [2]
  anti-tumor effect: no significant effect
DA-3 mammary carcinoma [3]; [7]
  tumor size: 6.5
DA-3 mammary carcinoma [3]; [8]
  tumor size: 12.6
DA-3 mammary carcinoma [3]; [9]
  tumor size: 20.2
DA-3 mammary carcinoma [3]; [10]
  tumor size: 9.5
DA-3 mammary carcinoma [3]; [11]
  tumor size: 41.7
DA-3 mammary carcinoma [3]; [12]
  tumor size: 44.9
DA-3 mammary carcinoma [3]; [13]
  tumor size: 63.4
DA-3 mammary carcinoma [3]; [14]
  tumor size: 69.6
DA-3 mammary carcinoma [3]; [15]
  tumor size: 95.4
DA-3 mammary carcinoma [3]; [16]
  tumor size: 104.2
DA-3 mammary carcinoma [3]; [17]
  tumor size: 115.8
DA-3 mammary carcinoma [3]; [18]
  tumor size: 3.6
DA-3 mammary carcinoma [3]; [19]
  tumor size: 2.7
DA-3 mammary carcinoma [3]; [20]
  tumor size: 10.2
DA-3 mammary carcinoma [3]; [21]
  tumor size: 18.1
DA-3 mammary carcinoma [3]; [22]
  tumor size: 29.2
DA-3 mammary carcinoma [3]; [23]
  tumor size: 50.1
DA-3 mammary carcinoma [3]; [24]
  tumor size: 58.5
DA-3 mammary carcinoma [3]; [25]
  tumor size: 66.3
DA-3 mammary carcinoma [3]; [26]
  tumor size: 94.2
DA-3 mammary carcinoma [3]; [27]
  tumor size: 131.4
DA-3 mammary carcinoma [3]; [28]
  tumor size: 130.9
DA-3 mammary carcinoma [3]; [29]
  tumor size: 152.5
DA-3 mammary carcinoma [3]; [30]
  tumor size: 187.2
Blood cells [4]; 5 FU + cpd #1 25 mg/kg
  CD8+ CD45+ (mean): 10.11
  NK+ (mean): 3.58
Blood cells [4]; 5 FU + cpd #1 50 mg/kg
  CD8+ CD45+ (mean): 8.65
  NK+ (mean): 4.12
[5]; [7]
  body weight: 18.2
[5]; [8]
  body weight: 19.1
[5]; [9]
  body weight: 19.0
[5]; [10]
  body weight: 18.6
[5]; [11]
  body weight: 19.5
[5]; [12]
  body weight: 19.3
[5]; [13]
  body weight: 18.9
[5]; [14]
  body weight: 18.8
[5]; [15]
  body weight: 19.5
[5]; [16]
  body weight: 19.4
[5]; [17]
  body weight: 19.3
[5]; [18]
  body weight: 18.7
[5]; compound #1 50 mg/kg + CTX 28 mg/kg
  body weight loss: No significant body weight loss
[5]; [19]
  body weight: 18.6
[5]; [20]
  body weight: 19.1
[5]; [21]
  body weight: 19.3
[5]; [22]
  body weight: 18.9
[5]; [23]
  body weight: 18.9
[5]; [24]
  body weight: 19.5
[5]; [25]
  body weight: 18.9
[5]; [26]
  body weight: 19.3
[5]; [27]
  body weight: 19.3
[5]; [28]
  body weight: 19.5
[5]; [29]
  body weight: 19.7
[5]; [30]
  body weight: 20.0
[6]; [31]
  abnormal signs: no abnormal signs
  growth curves: normal
[6]; 250 mg/kg and 125 mg/kg i.v., day 8
  changes on necropsy: No drug induced changes
[6]; 250 mg/kg i.v., 5 consecutive days
  signs of toxicity: no signs of toxicity
[6]; 500 mg/kg i.v., 5 days
  growth curves: not affected when compared to controls
  lethality or effects on growth: no lethality of effects on the growth of the animals
  signs of drug effect: twitches of the torso area, tremors of the forepaws and jumping episods; also recorded: some short lasting abnormal signs
[6]; 500 mg/kg i.v., after each of five injections
  duration of signs: less than 1 hour
[6]; 1000 mg/kg i.v.
  lethality: lethal
  signs of drug effect: severe colonic convulsions
[6]; 1000 mg/kg i.v., 1 male and 1 female, both died
  time to death: ≤ 10 min
[6]; i.v. in Fisher rats
  tolerability: well tolerated
[6]; rat, in vivo
  tolerability (conclusion): appear to be well tolerated
